Measurements reported in patent publication US11959086B2, “Dual transit peptides for targeting polypeptides” (BASF AGRO B.V., priority 2016, dated 2024).

Experiments:
[1] = system: transgenic Arabidopsis thaliana, transgene SEQ ID NO 120; assay: Herbicide injury evaluation of Arabidopsis plants, greenhouse; format: in vivo; conditions: Table 4, scale 0-100
[2] = system: transgenic Arabidopsis thaliana, transgene SEQ ID NO 117; assay: as above; format: in vivo; conditions: Table 3, scale 0-100
[3] = system: transgenic Arabidopsis thaliana, transgene SEQ ID NO 121; assay: as above; format: in vivo; conditions: Table 3, scale 0-100
[4] = system: Arabidopsis plants, construct RHOMA_PPO_wt_tpAMATU_PPO2 (SEQ ID NO 127); assay: Tolerance of transgenic T1 Arabidopsis plants to herbicides, greenhouse (Tolerance Factor); format: in vivo, Arabidopsis thaliana
[5] = system: Arabidopsis plants, construct RHOMA_PPO_wt_tpFNR (SEQ ID NO 123); assay: as above; format: in vivo, Arabidopsis thaliana
[6] = system: Arabidopsis plants, construct hemG_tplAMATU_PPO2 (SEQ ID NO 118); assay: as above; format: in vivo, Arabidopsis thaliana
[7] = system: transgenic Arabidopsis thaliana, transgene SEQ ID NO 119; assay: Herbicide injury evaluation of Arabidopsis plants, greenhouse; format: in vivo; conditions: Table 3, scale 0-100
[8] = system: Arabidopsis plants, construct hemF_tplAMATU_PPO2 (SEQ ID NO 115); assay: Tolerance of transgenic T1 Arabidopsis plants to herbicides, greenhouse (Tolerance Factor); format: in vivo, Arabidopsis thaliana
[9] = system: Arabidopsis plants, construct hemF_tpsAMATU_PPO2 (SEQ ID NO 116); assay: as above; format: in vivo, Arabidopsis thaliana
[10] = system: Arabidopsis plants, construct hemG_tpsAMATU_PPO2 (SEQ ID NO 119); assay: as above; format: in vivo, Arabidopsis thaliana
[11] = system: Arabidopsis plants, construct RHOMA_PPO_F420V_tpFNR (SEQ ID NO 124); assay: as above; format: in vivo, Arabidopsis thaliana
[12] = system: transgenic Arabidopsis thaliana, transgene SEQ ID NO 118; assay: Herbicide injury evaluation of Arabidopsis plants, greenhouse; format: in vivo; conditions: scale 0-100
[13] = system: Wildtype/non-transgenic Arabidopsis thaliana; assay: as above; format: in vivo; conditions: scale 0-100
[14] = system: Arabidopsis plants, construct OPITE_PPO_wt_tpFNR (SEQ ID NO 121); assay: Tolerance of transgenic T1 Arabidopsis plants to herbicides, greenhouse (Tolerance Factor); format: in vivo, Arabidopsis thaliana
[15] = system: Arabidopsis plants, construct CHLSP_PPO_wt_tpFNR (SEQ ID NO 128); assay: as above; format: in vivo, Arabidopsis thaliana
[16] = system: Arabidopsis plants, construct hemF_tpFNR (SEQ ID NO 114); assay: as above; format: in vivo, Arabidopsis thaliana
[17] = system: Arabidopsis plants, construct hemG_tpFNR (SEQ ID NO 117); assay: as above; format: in vivo, Arabidopsis thaliana
[18] = system: transgenic Arabidopsis thaliana, transgene SEQ ID NO 128; assay: Herbicide injury evaluation of Arabidopsis plants, greenhouse; format: in vivo; conditions: Table 3, scale 0-100

Structure (SMILES): C#CCN1C(=O)C(F)(F)Oc2cc(F)c(-n3c(=O)n(C)c(=S)n(C)c3=O)cc21 [Trifludimoxazine, 1,5-dimethyl-6-thioxo-3-(2,2,7-trifluoro-3-oxo-4-(prop-2-ynyl)-3,4-dihydro-2H-benzo[b][1,4]oxazin-6-yl)-1,3,5-triazinane-2,4-dione]
- Herbicide injury evaluation 14 days after herbicide treatment ([1]; SEQ ID NO 120 J, 25 g ai/ha + 1% MSO): 80
- Herbicide injury evaluation 14 days after herbicide treatment ([1]; SEQ ID NO 120 J, 75 g ai/ha + 1% MSO): 94
- Herbicide injury evaluation 14 days after herbicide treatment ([1]; SEQ ID NO 120 J, 150 g ai/ha + 1% MSO): 98
- Herbicide injury evaluation 14 days after herbicide treatment ([1]; SEQ ID NO 120 M, 25 g ai/ha + 1% MSO): 94
- Herbicide injury evaluation 14 days after herbicide treatment ([1]; SEQ ID NO 120 M, 75 g ai/ha + 1% MSO): 98
- Herbicide injury evaluation 14 days after herbicide treatment ([1]; SEQ ID NO 120 M, 150 g ai/ha + 1% MSO): 93
- Herbicide injury evaluation 14 days after herbicide treatment ([2]; SEQ ID NO 117 C, 25 g ai/ha + 1% MSO): 92
- Herbicide injury evaluation 14 days after herbicide treatment ([2]; SEQ ID NO 117 C, 75 g ai/ha + 1% MSO): 93
- Herbicide injury evaluation 14 days after herbicide treatment ([2]; SEQ ID NO 117 C, 150 g ai/ha + 1% MSO): 97
- Herbicide injury evaluation 14 days after herbicide treatment ([2]; SEQ ID NO 117 I, 25 g ai/ha + 1% MSO): 90
- Herbicide injury evaluation 14 days after herbicide treatment ([2]; SEQ ID NO 117 I, 75 g ai/ha + 1% MSO): 99
- Herbicide injury evaluation 14 days after herbicide treatment ([2]; SEQ ID NO 117 I, 150 g ai/ha + 1% MSO): 98
- Herbicide injury evaluation 14 days after herbicide treatment ([3]; SEQ ID NO 121 G, 25 g ai/ha + 1% MSO): 100
- Herbicide injury evaluation 14 days after herbicide treatment ([3]; SEQ ID NO 121 G, 75 g ai/ha + 1% MSO): 100
- Herbicide injury evaluation 14 days after herbicide treatment ([3]; SEQ ID NO 121 G, 150 g ai/ha + 1% MSO): 100
- Herbicide injury evaluation 14 days after herbicide treatment ([3]; SEQ ID NO 121 H, 25 g ai/ha + 1% MSO): 100
- Herbicide injury evaluation 14 days after herbicide treatment ([3]; SEQ ID NO 121 H, 75 g ai/ha + 1% MSO): 100
- Herbicide injury evaluation 14 days after herbicide treatment ([3]; SEQ ID NO 121 H, 150 g ai/ha + 1% MSO): 100
- Tolerance Factor [4]: 1
- Tolerance Factor [5]: 1
- Tolerance Factor [6]: 9167
- Herbicide injury evaluation 14 days after herbicide treatment ([7]; SEQ ID NO 119 A, 25 g ai/ha + 1% MSO): 100
- Herbicide injury evaluation 14 days after herbicide treatment ([7]; SEQ ID NO 119 A, 75 g ai/ha + 1% MSO): 100
- Herbicide injury evaluation 14 days after herbicide treatment ([7]; SEQ ID NO 119 A, 150 g ai/ha + 1% MSO): 100
- Herbicide injury evaluation 14 days after herbicide treatment ([7]; SEQ ID NO 119 B, 25 g ai/ha + 1% MSO): 100
- Herbicide injury evaluation 14 days after herbicide treatment ([7]; SEQ ID NO 119 B, 75 g ai/ha + 1% MSO): 100
- Herbicide injury evaluation 14 days after herbicide treatment ([7]; SEQ ID NO 119 B, 150 g ai/ha + 1% MSO): 100
- Tolerance Factor [8]: 1
- Tolerance Factor [9]: 1
- Tolerance Factor [10]: 1
- Tolerance Factor [11]: 1
- Herbicide injury evaluation 14 days after herbicide treatment ([12]; Table 3, SEQ ID NO 118 Q, 25 g ai/ha + 1% MSO): 45
- Herbicide injury evaluation 14 days after herbicide treatment ([12]; Table 3, SEQ ID NO 118 Q, 75 g ai/ha + 1% MSO): 50
- Herbicide injury evaluation 14 days after herbicide treatment ([12]; Table 3, SEQ ID NO 118 Q, 150 g ai/ha + 1% MSO): 58
- Herbicide injury evaluation 14 days after herbicide treatment ([12]; Table 3, SEQ ID NO 118 R, 25 g ai/ha + 1% MSO): 20
- Herbicide injury evaluation 14 days after herbicide treatment ([12]; Table 3, SEQ ID NO 118 R, 75 g ai/ha + 1% MSO): 23
- Herbicide injury evaluation 14 days after herbicide treatment ([12]; Table 3, SEQ ID NO 118 R, 150 g ai/ha + 1% MSO): 10
- Herbicide injury evaluation 14 days after herbicide treatment ([12]; Table 4, SEQ ID NO 118 Q, 25 g ai/ha + 1% MSO): 60
- Herbicide injury evaluation 14 days after herbicide treatment ([12]; Table 4, SEQ ID NO 118 Q, 75 g ai/ha + 1% MSO): 63
- Herbicide injury evaluation 14 days after herbicide treatment ([12]; Table 4, SEQ ID NO 118 Q, 150 g ai/ha + 1% MSO): 65
- Herbicide injury evaluation 14 days after herbicide treatment ([12]; Table 4, SEQ ID NO 118 R, 25 g ai/ha + 1% MSO): 18
- Herbicide injury evaluation 14 days after herbicide treatment ([12]; Table 4, SEQ ID NO 118 R, 75 g ai/ha + 1% MSO): 28
- Herbicide injury evaluation 14 days after herbicide treatment ([12]; Table 4, SEQ ID NO 118 R, 150 g ai/ha + 1% MSO): 50
- Herbicide injury evaluation 14 days after herbicide treatment ([13]; Table 3, 25 g ai/ha + 1% MSO): 100
- Herbicide injury evaluation 14 days after herbicide treatment ([13]; Table 3, 75 g ai/ha + 1% MSO): 100
- Herbicide injury evaluation 14 days after herbicide treatment ([13]; Table 3, 150 g ai/ha + 1% MSO): 100
- Herbicide injury evaluation 14 days after herbicide treatment ([13]; Table 4, 25 g ai/ha + 1% MSO): 100
- Herbicide injury evaluation 14 days after herbicide treatment ([13]; Table 4, 75 g ai/ha + 1% MSO): 100
- Herbicide injury evaluation 14 days after herbicide treatment ([13]; Table 4, 150 g ai/ha + 1% MSO): 100
- Tolerance Factor [14]: 9
- Tolerance Factor [15]: 1500
- Tolerance Factor [16]: 1
- Tolerance Factor [17]: 4433
- Herbicide injury evaluation 14 days after herbicide treatment ([18]; SEQ ID NO 128 D, 25 g ai/ha + 1% MSO): 85
- Herbicide injury evaluation 14 days after herbicide treatment ([18]; SEQ ID NO 128 D, 75 g ai/ha + 1% MSO): 93
- Herbicide injury evaluation 14 days after herbicide treatment ([18]; SEQ ID NO 128 D, 150 g ai/ha + 1% MSO): 93
- Herbicide injury evaluation 14 days after herbicide treatment ([18]; SEQ ID NO 128 E, 25 g ai/ha + 1% MSO): 85
- Herbicide injury evaluation 14 days after herbicide treatment ([18]; SEQ ID NO 128 E, 75 g ai/ha + 1% MSO): 95
- Herbicide injury evaluation 14 days after herbicide treatment ([18]; SEQ ID NO 128 E, 150 g ai/ha + 1% MSO): 97
